Patent US12331051B2 (priority 2021, dated 2025)

Legend:
[1] = target: ADRb1 (β1 adrenergic receptor) (Homo sapiens, UniProt P08588); assay: BRET-based G protein dissociation assay; format: cell-based
[2] = target: H1 histaminergic receptor (Homo sapiens, UniProt P35367); assay: BRET-based G protein dissociation assay; format: cell-based
[3] = target: T1, 5-HT1E (Homo sapiens, UniProt P28566); assay: Functional assay (Arrestin); format: cell-based
T1 construct: expressed in transfected cells; host or cells: HEK-293

[4] = system: DOI induced HTR in mice; assay: Blockade of DOI-induced HTR; format: in vivo, mouse; conditions: 10 min before DOI 1 mg/kg
Description: The “E559 polymorph” was studied for its effect to block the hallucinogenic (HTR) response of a psychedelic 2,5-Dimethoxy-4-iodoamphetamine (DOI) in the mouse HTR model. DOI is a serotonergic hallucinogenic compound used commonly as a positive control in HTR model [Halberstadt et al., Psychopharmacology (Berl). 2013 June; 227(4):727-39]. An HTR study was performed as described in Example 2 as follows: Five groups of mice (n=6-7 per group, 31 total) were either treated with vehicle (saline) or with the “E559 polymorph” at 0.1, 0.3, 1, or 3 mg/kg. Ten minutes later, all of the mice were injected with DOI (1 mg/kg) and then HTR activity was assessed for 30 min. […] All doses of the “E559 polymorph” were effective in blocking the response to DOI in a dose-dependent manner. The data are represented as group means±standard deviation and asterisks indicate statistical significances (*p<0.0001) compared to the vehicle (saline) control (0 mg/kg in FIG. 13A).
The time course of the blockade of the DOI induced HTR by the “E559 polymorph” was examined. An HTR study was performed as described in Example 2 as follows: Two groups of mice (n=6 per group) were either treated with vehicle or with the “E559 polymorph” at 1 mg/kg. Ten minutes later, all of the mice were injected with DOI (1 mg/kg) and then HTR activity was assessed for 30 min. […] The data are represented as group means±standard deviation and asterisks indicate statistical significances (*p<0.0001) compared to the vehicle (saline) control (0 mg/kg in FIG. 13B). The time course of the blockade of the DOI induced HTR by the “E559 polymorph” mirrors the time course of the pharmacokinetics of the “E559 polymorph” in the mouse brain tissue (shown in Example 3).

[5] = system: primary rat embryonic cortical neurons; assay: In vitro dendritogenesis and spinogenesis assays, Sholl analysis; format: cell-based
Description: The ability of the “E559 polymorph” to induce neural plasticity was evaluated in vitro. In vitro dendritogenesis and spinogenesis assays were conducted using primary rat embryonic cortical neurons. Briefly, cultured primary cortical neurons (rat) were treated at day in vitro (DIV) 3 for 3 hours with increasing concentrations (1, 10 and 100 nM, 1 and […]) of the “E559 polymorph” and morphological changes in dendritic arbor complexity (dendritogenesis) were assessed at DIV6 by immunofluorescent staining of fixed neurons with microtubule-associated protein 2 (MAP2, a microtubule marker), F-actin (cytoskeletal marker), and phalloidin (actin filament marker) followed by fluorescent microscopy and Sholl analysis of neurons' images. […] The spine density assessments (spinogenesis) were made on DIV 18. The cell viability assessments were made on DIV 6 by using the Neurite Outgrowth Staining Kit which includes fluorescent probes for dead and live neuronal cells. Ketamine was used as a comparator and positive control. Ketamine is known to induce dendritogenesis and its effects on synaptic plasticity are believed to mediate its antidepressant effects (Aguilar-Valles et al., Nature, 2021, 590, p315-319). Representative images of MAP2 stained rat cortical neurons treated with vehicle (no drug control) or with “E559 polymorph” is shown in FIG. 18A.
Horizontal lines in all figure panels represent the means±standard error of the mean (S.E.M.).

[6] = system: prefrontal cortex region of mice; assay: Spine density analysis in the prefrontal cortex after FST; format: in vivo, mouse; conditions: both sexes, 1 mg/kg, ~26 hour after treatment
Description: Following testing in the FST, brains were collected for spine density analysis in the prefrontal cortex region (˜26 hour after treatment; FIG. 25H).

[7] = system: rat spared nerve injury (SNI) model; assay: Spared nerve injury (SNI) model, von Frey mechanical allodynia; format: in vivo
Description: To evaluate the function the “E559 polymorph” in neuropathic pain, mechanical allodynia test was evaluated by von Frey filament in rat spared nerve injury (SNI) model before and after before and after treatment with the “E559 polymorph”. The SNI model and von Frey filament testing were conducted as previously described (Decosterd & Woolf. Pain, 2000, v87, p149-158). Briefly, Animals with a pain threshold of <15 g, assessed using the Von Frey mechanical allodynia testing, were randomly placed in experimental groups. Each rat group consisted of 10 male rats. On day 7 post-surgery treatment was initiated. […]
The pain response (Von Frey testing) was evaluated on day 0 pre-surgery (labelled as Baseline in FIG. 27), on day 6 post-surgery (labelled as Day 6 Pre grouping in FIG. 27), and at 2, 4, 6, and 24 hours after a single oral dose of either vehicle, or the “E559 polymorph” at 0.3, 1, 3, or 10 mg/kg (labelled as BETR-001 in FIG. 27), or gabapentin at 150 mg/kg. […]
Rat groups were treated (via oral administration) with either vehicle, or the “E559 polymorph” at 20 mg/kg (labelled as BETR-001 in FIG. 28), or gabapentin at 150 mg/kg. […] The pain response (Von Frey testing) was evaluated on day 0 pre-surgery (labelled as Baseline in FIG. 28), on day 6 post-surgery (labelled as Day 6 Pre grouping in FIG. 28), and at 2 hours post-treatment given on days 7, 11, and 15 post-surgery. […]

[8] = target: H3 histaminergic receptor (Homo sapiens, UniProt Q9Y5N1); assay: BRET-based G protein dissociation assay; format: cell-based; conditions: percentage of the reference ligand-induced maximal response
Sequence of H3 histaminergic receptor (Q9Y5N1 whole entry): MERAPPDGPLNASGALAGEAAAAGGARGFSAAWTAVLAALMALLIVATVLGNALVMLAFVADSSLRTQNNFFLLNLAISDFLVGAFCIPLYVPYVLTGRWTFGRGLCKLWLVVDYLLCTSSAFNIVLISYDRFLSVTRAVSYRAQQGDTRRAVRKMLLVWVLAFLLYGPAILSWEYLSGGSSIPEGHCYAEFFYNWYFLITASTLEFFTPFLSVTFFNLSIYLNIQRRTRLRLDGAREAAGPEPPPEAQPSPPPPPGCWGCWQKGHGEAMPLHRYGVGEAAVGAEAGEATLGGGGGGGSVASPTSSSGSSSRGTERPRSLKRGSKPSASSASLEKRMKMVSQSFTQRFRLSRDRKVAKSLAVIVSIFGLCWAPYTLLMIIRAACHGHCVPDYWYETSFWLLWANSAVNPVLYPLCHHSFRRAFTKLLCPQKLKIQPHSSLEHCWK

Sequence of H1 histaminergic receptor (P35367 whole entry): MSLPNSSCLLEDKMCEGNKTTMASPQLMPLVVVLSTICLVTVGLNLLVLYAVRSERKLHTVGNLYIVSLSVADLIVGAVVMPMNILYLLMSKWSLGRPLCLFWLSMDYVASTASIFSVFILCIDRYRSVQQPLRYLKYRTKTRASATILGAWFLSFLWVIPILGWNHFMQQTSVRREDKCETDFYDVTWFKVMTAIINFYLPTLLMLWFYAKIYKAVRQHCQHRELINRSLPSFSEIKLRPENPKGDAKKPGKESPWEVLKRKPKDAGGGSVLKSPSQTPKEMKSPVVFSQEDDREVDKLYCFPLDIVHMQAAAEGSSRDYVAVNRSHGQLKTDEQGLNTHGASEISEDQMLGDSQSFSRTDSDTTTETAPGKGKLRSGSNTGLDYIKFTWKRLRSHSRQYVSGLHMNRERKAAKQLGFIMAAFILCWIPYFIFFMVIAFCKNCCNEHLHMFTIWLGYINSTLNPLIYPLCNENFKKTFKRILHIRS
Sequence of ADRb1 (β1 adrenergic receptor) (P08588 whole entry): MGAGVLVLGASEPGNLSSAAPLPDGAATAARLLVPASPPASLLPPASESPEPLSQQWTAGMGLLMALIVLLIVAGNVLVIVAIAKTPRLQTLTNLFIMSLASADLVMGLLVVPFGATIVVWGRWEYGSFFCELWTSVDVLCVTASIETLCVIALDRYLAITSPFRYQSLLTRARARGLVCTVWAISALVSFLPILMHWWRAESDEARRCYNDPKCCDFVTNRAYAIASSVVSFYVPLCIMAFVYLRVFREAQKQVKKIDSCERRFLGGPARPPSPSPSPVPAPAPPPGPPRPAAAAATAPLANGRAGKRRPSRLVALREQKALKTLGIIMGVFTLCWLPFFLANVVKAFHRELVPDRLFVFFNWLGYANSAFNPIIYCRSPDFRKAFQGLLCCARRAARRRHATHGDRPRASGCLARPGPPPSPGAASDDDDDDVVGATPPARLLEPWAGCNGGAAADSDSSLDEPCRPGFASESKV
T1 sequence (P28566 whole entry): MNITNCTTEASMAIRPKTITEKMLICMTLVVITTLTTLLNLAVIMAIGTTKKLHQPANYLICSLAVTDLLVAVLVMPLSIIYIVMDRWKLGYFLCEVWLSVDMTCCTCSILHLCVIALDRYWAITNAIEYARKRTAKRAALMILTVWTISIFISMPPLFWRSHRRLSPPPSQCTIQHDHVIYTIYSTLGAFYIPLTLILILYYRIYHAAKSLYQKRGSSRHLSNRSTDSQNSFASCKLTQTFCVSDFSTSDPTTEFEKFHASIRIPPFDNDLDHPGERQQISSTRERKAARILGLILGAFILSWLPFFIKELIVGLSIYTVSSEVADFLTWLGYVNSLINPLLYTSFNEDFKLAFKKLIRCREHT

CCN(CC)C(=O)[C@@H]1C=C2c3cccc4[nH]c(Br)c(c34)C[C@H]2N(C)C1 [E559, (5R, 8R)-2-Bromo-9,10-didehydro-N,N-diethyl-6-methylergoline-8-carboxamide hemi-D-tartrate]
EC50 [1]: > 10 µM
Kb [1]: 0.0952 µM
EC50 [2]: 0.152 µM
Kb [2]: 0.983 µM
EC50 [3]: > 10 µM
Emax ([3]; Arrestin, ligand 5-HT, read-out: Functional Assay (agonist) Emax): 8.7%
blockade of DOI induced HTR, time course ([4]; 1 mg/kg): almost completely blocked the DOI induced HTR during the first 10 minutes
time after which blockage of DOI induced HTR was no longer detected ([4]; 1 mg/kg): 40 to 60 min
attenuation of DOI-induced HTR ([4]; 0.1, 0.3, 1 or 3 mg/kg): significantly attenuated the ability of DOI to induce the HTR in mice
lowest concentration at which increase in neuronal plasticity reached statistical significance ([5]; 3 hours treatment at DIV3): 1 µM
lowest concentration at which increase in neuronal plasticity was detectable ([5]; 3 hours treatment at DIV3): 1 nM
total length of the dendritic arbor ([5]; DIV6, 1 and 10 μM): total length of the dendritic arbor was also increased
total dendrites crossing the Sholl radii ([5]; DIV6, 1 and 10 μM significant vs control): significantly increased the number of total dendrites crossing the Sholl radii
spine density ([5]; DIV 18, 3-hour incubation at 1 and 10 μM): increased the spine density
average spine density in prefrontal cortex [6]: significant increase in the average spine density
inhibition of mechanical allodynia, repeated dosing ([7]; oral 20 mg/kg on days 7, 9, 11, 13 and 15 post-surgery): enhanced the inhibition effect on mechanism allodynia to levels comparable to the gabapentin positive control
inhibition of neuropathic pain (von Frey), single dose ([7]; single oral dose 0.3, 1, 3 or 10 mg/kg on day 7 post-surgery, 2 and 4 hours post administration): significant dose-dependent inhibition of neuropathic pain

CCN(CC)C(=O)[C@@H]1C=C2c3cccc4[nH]cc(c34)C[C@H]2N(C)C1 [LSD, lysergic acid diethylamide, reference compound]
Emax [8]: 18.6%
